Our source for the logP values is the OPERA property sets (Mansouri et al. 2018).

Take `CC(=O)Nc1c(C(C)C)cccc1C(C)C`: the logP (usually a log measure of how a compound divides between an organic and an aqueous phase) was determined as 2.41.

`CC(=O)Nc1ccc(Br)c(Cl)c1C` gave a log partition coefficient (logP) of 2.69.

With `CC(=O)Nc1c(Cl)cccc1Cl`, the logP was 1.32.

The molecule `CC(=O)Nc1c(C)cccc1C` came in with a logP of 1.07.

In the case of `CC(=O)Nc1cccc(Cl)c1`, the log partition coefficient (logP) came out at 2.15.

In turn, `CC(=O)Nc1cccc(Cl)c1Cl` displayed a logP of 2.09.

In turn, `CC(=O)Nc1cc(Cl)ccc1C` returned a logP of 1.82.

Regarding `CC(=O)Nc1ccccc1I`, the logP stood at 1.62.

In turn, `CC(=O)Nc1cc(Cl)c(F)c(Cl)c1F` registered a logP of 2.9.

`CC(=O)Nc1cc(C(F)(F)F)ccc1Cl` had a lipophilicity (logP) of 2.24.

As to `CC(=O)Nc1ccc(Cl)c(Cl)c1`, the logP was 3.

With `CC(=O)Nc1c(C)cccc1Cl`, the logP worked out at 1.22.

As for `CC(=O)Nc1c(Br)cccc1Br`, the logP came out at 1.53.

Take `COc1cccc(NC(C)=O)c1`: the logP came to 1.3.

In turn, `CC(=O)Nc1cc(OC(F)(F)F)c(Cl)cc1Cl` displayed a logP of 3.71.

As to `CC(=O)Nc1ccc(C)cc1C`, the logP was found to be 1.46.

In turn, `CCc1cccc(C)c1NC(C)=O` returned a logP of 1.41.

`CC(=O)Nc1ccc(Cl)cc1Cl` registered a log partition coefficient (logP) of 2.18.

`CC(=O)Nc1ccc(Cl)c(C(F)(F)F)c1` displayed a logP of 3.33.

For `COc1ccccc1F`, the logP came out at 2.14.

`CCc1cc(Br)ccc1NC(C)=O` displayed a logP of 2.27.

`CC(=O)Nc1cc(Cl)cc(C(F)(F)F)c1Cl`: the lipophilicity (logP) worked out at 3.27.

As for `CC(=O)Nc1cc(Cl)cc(C(F)(F)F)c1Br`, the logP was found to be 3.26.

`NC(=O)c1c(Br)cccc1Br` came in with a logP of 1.

In turn, `CC(=O)Nc1cc(C)ccc1C` registered a logP of 1.47.

Take `N#Cc1ccc(C(N)=O)cc1`: the logP was determined as 0.48.

In turn, `COc1cccc(Cl)c1C(N)=O` yielded a logP of 0.59.

On to `COc1cc(Br)ccc1NC(C)=O`, for which the logP came to 2.02.

`COc1cccc(OC)c1`: the logP amounted to 2.21.

In the case of `COc1cccc(OC)c1C(N)=O`, the logP is -0.22.

Molecule `CC(=O)Nc1ccc(C(N)=O)cc1` registered a logP of 0.01.

Take `COc1cccc(OC)c1C`: the logP amounted to 2.87.

For the molecule `CC(=O)Nc1cccc(C)c1C`, the logP was determined as 1.35.

In the case of `CC(=O)Nc1c(C)cc(Br)cc1C`, the logP was determined as 2.12.

In the case of `O=[N+]([O-])c1cc(C(F)(F)F)cc([N+](=O)[O-])c1Cl`, the logP came to 2.5.

As for `Cc1cccc(C)c1C(N)=O`, the logP came out at 0.9.

`CC(=O)Nc1cc(C)c(O)cc1C`: the logP worked out at 0.6.

Turning to `CCc1ccc(NC(C)=O)cc1`, the logP stood at 2.2.

For `COc1cccc([N+](=O)[O-])c1C(N)=O`, the logP was -0.26.

On to `CC(=O)Nc1cc(C(F)(F)F)c(Cl)cc1Cl`, for which the logP was 3.24.

Regarding `CCOc1ccc(C(N)=O)cc1`, the logP was 1.3.

On to `CCc1cc(NC(C)=O)ccc1Br`, for which the logP came to 3.33.

Take `CC(=O)Nc1c(C)cc(C)cc1[N+](=O)[O-]`: the logP came out at 1.18.

Regarding `N#Cc1ccccc1[N+](=O)[O-]`, the logP stood at 1.02.

With `NC(=O)c1c(Cl)cccc1Br`, the logP turned out to be 1.

`CC(=O)Nc1cccc(Cl)c1F` showed a logP of 1.83.

In turn, `NC(=O)c1ccccc1C(F)(F)F` came in with a logP of 0.68.

As for `CC(=O)Nc1ccccc1-c1ccccc1`, the logP amounted to 2.02.

For `CC(=O)Nc1cc([N+](=O)[O-])c(Br)cc1F`, the logP turned out to be 2.11.

In turn, `COc1ccccc1Cl` displayed a logP of 2.68.

With `CC(=O)Nc1ccccc1F`, the logP was 1.03.

Molecule `COc1ccc(OC)c(Cl)c1` yielded a logP of 2.69.

Consider `COc1ccc(NC(C)=O)c([N+](=O)[O-])c1`, for which the logP was determined as 1.09.

Molecule `COc1cccc([N+](=O)[O-])c1C` gave a logP of 2.68.

`CCCCc1ccc(NC(C)=O)cc1C` showed a logP of 3.64.

`CC(=O)Nc1cccc([N+](=O)[O-])c1` displayed a logP of 1.47.

Molecule `COc1ccc(NC(C)=O)cc1Cl` registered a log partition coefficient (logP) of 1.81.

With `CCCCc1ccc(NC(C)=O)c([N+](=O)[O-])c1`, the logP was 3.1.

On to `CC(=O)Nc1c(F)c(F)c(F)c(F)c1F`, for which the logP turned out to be 1.7.

In the case of `CC(=O)Nc1c([N+](=O)[O-])cccc1[N+](=O)[O-]`, the logP amounted to 0.56.

As for `CC(=O)Nc1cccc(Br)c1`, the logP was 2.31.

`CC(=O)Nc1ccc(Cl)cc1[N+](=O)[O-]` came in with a logP of 1.78.

The molecule `CCc1ccccc1NC(C)=O` registered a logP of 1.32.

Regarding `NC(=O)c1ccccc1Cl`, the logP worked out at 0.64.

With `CC(=O)Nc1cc(Cl)cc(Cl)c1`, the logP was 3.17.

Take `CC(=O)Nc1ccccc1Br`: the logP came to 1.34.

In the case of `CC(=O)Nc1cc(C(F)(F)F)c(Br)cc1F`, the logP turned out to be 3.17.

As for `COc1ccccc1Br`, the logP was 2.86.

For the molecule `CC(=O)Nc1ccc(Br)c(C)c1`, the logP worked out at 2.8.

`CC(=O)Nc1ccc(Cl)cc1F` gave a logP of 1.91.

The molecule `CC(=O)Nc1cc(C(F)(F)F)c(F)cc1F` registered a logP of 2.34.

On to `COc1c(C)cccc1NC(C)=O`, for which the logP stood at 1.28.

As for `CCCCc1ccc(NC(C)=O)c(C)c1`, the logP came out at 3.1.

For `N#Cc1cccc(C(N)=O)c1`, the logP came to 0.52.

Consider `Cc1cccc(Cl)c1C(N)=O`, for which the logP came out at 0.89.

Regarding `CC(=O)Nc1cccc(Cl)c1C`, the lipophilicity (logP) stood at 1.82.

As to `COc1ccc(C)c(OC)c1`, the logP worked out at 2.76.

With `CC(=O)Nc1ccc(OC(F)(F)F)cc1`, the lipophilicity (logP) is 2.62.

`CCCCc1ccc(NC(C)=O)c(Br)c1` came in with a lipophilicity (logP) of 3.39.

With `CCCCc1ccc(NC(C)=O)cc1`, the logP came to 3.3.

In turn, `CC(C)c1ccccc1[N+](=O)[O-]` registered a logP of 3.34.

As for `COc1ccccc1C(=O)N(C)C`, the logP was found to be 0.71.

With `CC(=O)Nc1cc(C)c(C)c(C)c1`, the logP came out at 2.5.

In turn, `NC(=O)c1c(F)cccc1F` had a logP of 0.25.

As for `NC(=O)c1ccccc1Br`, the logP amounted to 0.77.

As for `CCc1cccc(CC)c1NC(C)=O`, the logP came to 1.85.

As to `CC(=O)Nc1cc(C(F)(F)F)cc(C(F)(F)F)c1`, the logP turned out to be 3.72.

Regarding `CC(=O)Nc1ccc(C)cc1[N+](=O)[O-]`, the logP amounted to 1.49.

Consider `CC(=O)Nc1ccc(Br)cc1C`, for which the logP was found to be 2.03.

In turn, `COc1c(Cl)cccc1NC(C)=O` displayed a logP of 1.68.

In turn, `CC(=O)Nc1ccccc1C(F)(F)F` had a logP of 1.17.

For the molecule `CC(=O)Nc1cc(C(F)(F)F)ccc1F`, the logP is 2.24.

Consider `C=CCOc1cc(NC(C)=O)c(F)cc1Cl`, for which the logP stood at 2.76.

Molecule `CCc1ccccc1OC` showed a logP of 3.18.

In turn, `CC(=O)Nc1cc(F)cc(C(F)(F)F)c1Cl` had a logP of 2.86.

`CC(=O)Nc1ccc(Cl)c(Cl)c1Cl`: the logP came to 2.88.

The molecule `O=[N+]([O-])c1ccc(Cl)cc1[N+](=O)[O-]` came in with a logP of 2.18.

`CC(=O)Nc1cc(Br)cc(C(F)(F)F)c1Cl` yielded a logP of 3.41.

Regarding `CC(=O)Nc1cccc(F)c1`, the logP came to 1.65.

In turn, `CC(=O)Nc1cc(C(F)(F)F)cc(Cl)c1Cl` had a logP of 3.27.

Consider `Cc1ccccc1C(N)=O`, for which the logP turned out to be 0.76.

Molecule `CC(C)c1ccccc1C(N)=O` returned a logP of 1.39.

Molecule `Cc1cccc([N+](=O)[O-])c1C(N)=O` had a logP of 0.1.

In turn, `CC(=O)Nc1c(C)cccc1[N+](=O)[O-]` showed a logP of 0.61.

In turn, `CC(=O)Nc1ccc(Oc2ccccn2)cc1` yielded a logP of 1.57.

As for `CC(=O)Nc1c(F)ccc(C(F)(F)F)c1Br`, the logP came to 2.22.

As for `CC(=O)Nc1cc(C)c(Br)c(C)c1`, the logP is 3.28.

For `CC(=O)Nc1ccc(Br)c(Cl)c1F`, the logP worked out at 2.86.

`NC(=O)c1c(F)cccc1Br` showed a log partition coefficient (logP) of 0.63.

`CC(=O)Nc1ccc(Cl)cc1C(F)(F)F` gave a logP of 1.98.

As for `NC(=O)c1ccccc1I`, the logP came to 0.93.

In turn, `CCCc1cc(NC(C)=O)ccc1OC` had a logP of 2.72.

As for `NC(=O)c1c(F)cccc1Cl`, the logP turned out to be 0.49.

`NC(=O)c1ccccc1F` registered a log partition coefficient (logP) of 0.59.

For the molecule `CC(=O)Nc1ccc(C)c(C)c1C`, the logP came out at 1.76.

The molecule `CC(=O)Nc1ccccc1Oc1ccccc1` displayed a logP of 2.37.

In turn, `CC(=O)Nc1cc(C)cc(C)c1` displayed a logP of 2.17.

With `CCc1cccc(C(C)C)c1NC(C)=O`, the logP came out at 2.1.

Molecule `CC(=O)Nc1ccc(C)cc1` gave a logP of 1.7.

In the case of `N#Cc1ccccc1C#N`, the logP was found to be 0.99.

In turn, `CC(=O)Nc1cc(Cl)c(Cl)c(Cl)c1` registered a logP of 3.76.

Consider `CC(=O)Nc1c(F)cccc1F`, for which the logP stood at 0.69.

Turning to `CC(=O)Nc1cc(Cl)cc(Cl)c1Br`, the log partition coefficient (logP) worked out at 3.04.

Turning to `CCc1ccccc1C(N)=O`, the logP amounted to 1.17.

As for `CC(=O)Nc1cc(Cl)cc(C(F)(F)F)c1F`, the log partition coefficient (logP) is 3.15.

Consider `CC(=O)Nc1cc(C(F)(F)F)c(Cl)cc1F`, for which the logP worked out at 3.02.

`COc1cccc(NC(C)=O)c1C` registered a logP of 1.13.

Turning to `CC(=O)Nc1cc(Cl)ccc1Cl`, the logP turned out to be 2.19.

As to `CC(C)(C)c1ccc(C(N)=O)cc1`, the logP amounted to 2.51.

In the case of `CC(=O)Nc1ccc(C)c(C)c1`, the logP was 2.1.

Regarding `NC(=O)c1c(Cl)cccc1Cl`, the lipophilicity (logP) is 0.77.

Turning to `NC(=O)c1c(Br)cccc1[N+](=O)[O-]`, the logP turned out to be 0.28.

`CC(=O)Nc1ccc(Br)c(C)c1Cl` came in with a logP of 2.73.

As for `NC(=O)c1c(Cl)cccc1[N+](=O)[O-]`, the logP was 0.12.

Turning to `CC(=O)Nc1ccc(C)c(Cl)c1`, the logP was found to be 2.69.
